# Assay results as given in patent publication US20260035387A1 (BIOGEN MA INC., priority 2022, published 2026).
# System: mutant Huntington (HTT) protein
# Experiment: HTT Mutant HTRF iPSC assay (mHTT protein lowering)
# Format: cell-based
# Conditions: human iPSC derived from a HTT patient with a poly-Q49 mutation
row,Compound,IC50 [nM]
1,"COc1cc2nn(C)cc2cc1NC(=O)c1nc2ccc(N3CC[C@H](N4CCC4)C3)nc2s1 [Compound 121, (S)-5-(3-(azetidin-1-yl)pyrrolidin-1-yl)-N-(6-methoxy-2-methyl-2H-indazol-5-yl)thiazolo[5,4-b]pyridine-2-carboxamide]",100 to 1000
2,"CN(C)C1CCN(c2ccc3cc(C(=O)Nc4ccc5c(c4)n(C)c(=O)n5C)sc3n2)C1 (centres unmarked) [Compound 58, N-(1,3-dimethyl-2-oxo-2,3-dihydro-1H-benzo[d]imidazol-5-yl)-6-(3-(dimethylamino)pyrrolidin-1-yl)thieno[2,3-b]pyridine-2-carboxamide]",1000 to 9000
3,"Cc1cn2cc(NC(=O)c3cc4ccc(N5CCC6CCN(C)CC65)nc4s3)ccc2n1 (centres unmarked) [Compound 16, N-(2-methylimidazo[1,2-a]pyridin-6-yl)-6-(6-methyloctahydro-1H-pyrrolo[2,3-c]pyridin-1-yl)thieno[2,3-b]pyridine-2-carboxamide]",1000 to 9000
4,"COc1c(NC(=O)c2cc3ccc(C4CCN(C)C4)nc3s2)cc2cn(C)nc2c1F (single isomer, unassigned) [Compound 265]",< 100
5,"Cc1cn2cc(NC(=O)c3cc4ccc(N5CCC(N(C)C)C5)nc4s3)ccc2n1 (stereo in doubt) [Compound 26, (S)-6-(3-(dimethylamino)pyrrolidin-1-yl)-N-(2-methylimidazo[1,2-a]pyridin-6-yl)thieno[2,3-b]pyridine-2-carboxamide]",100 to 1000
6,"COc1cn2nc(C)cc2cc1NC(=O)c1cc2ccc(N3CCC(N(C)C)C3)nc2s1 (centres unmarked) [Compound 190, 6-(3-(dimethylamino)pyrrolidin-1-yl)-N-(6-methoxy-2-methylpyrazolo[1,5-a]pyridin-5-yl)thieno[2,3-b]pyridine-2-carboxamide]",< 100
7,"CCN1CCN(c2ccc3cc(C(=O)Nc4cn5cc(C)nc5c(C(F)F)n4)sc3n2)CC1 [Compound 253, N-(8-(difluoromethyl)-2-methylimidazo[1,2-a]pyrazin-6-yl)-6-(4-ethylpiperazin-1-yl)thieno[2,3-b]pyridine-2-carboxamide]",< 100
8,"COc1cc2nn(C)cc2cc1NC(=O)c1cc2ccc(N3CCC4(CN(C)C4)C3)nc2s1 [Compound 221, N-(6-methoxy-2-methyl-2H-indazol-5-yl)-6-(2-methyl-2,6-diazaspiro[3.4]octan-6-yl)thieno[2,3-b]pyridine-2-carboxamide]",< 100
9,"CCN[C@@H]1CCN(c2ccc3cc(C(=O)Nc4cc(F)c5nc(C)cn5c4)sc3n2)C1 (stereo in doubt) [Compound 68, 6-[(3R)-3-(ethylamino)pyrrolidin-1-yl]-N-(8-fluoro-2-methyl-imidazo[1,2-a]pyridin-6-yl)thieno[2,3-b]pyridine-2-carboxamide]",< 100
10,"Cc1cn2cc(NC(=O)c3cc4ncc(N5CCC(N(C)C)C5)cc4o3)cc(F)c2n1 (centres unmarked) [Compound 86, 6-[3-(dimethylamino)pyrrolidin-1-yl]-N-(8-fluoro-2-methyl-imidazo[1,2-a]pyridin-6-yl)furo[3,2-b]pyridine-2-carboxamide]",100 to 1000
11,"Cc1cn2cc(NC(=O)c3cc4ccc(N5CCC(NCC6CC6)C5)nc4s3)cc(F)c2n1 (single isomer, unassigned) [Compound 210]",< 100
12,"Cc1cn2cc(NC(=O)c3cc4ccc(N5CC6CCN(C)C6C5)nc4s3)ccc2n1 (stereo in doubt) [Compound 43, 6-((3aR,6aR)-1-methylhexahydropyrrolo[3,4-b]pyrrol-5(1H)-yl)-N-(2-methylimidazo[1,2-a]pyridin-6-yl)thieno[2,3-b]pyridine-2-carboxamide]",100 to 1000
13,"COc1nc(NC(=O)c2nc3ccc(N4CCC(N(C)C)C4)nc3s2)cn2cc(C)nc12 (centres unmarked) [Compound 100, 5-(3-(dimethylamino)pyrrolidin-1-yl)-N-(8-methoxy-2-methylimidazo[1,2-a]pyrazin-6-yl)thiazolo[5,4-b]pyridine-2-carboxamide]",< 100
14,Cc1cn2cc(NC(=O)c3cc4ccc(OC5C[C@@H](C)N[C@@H](C)C5)nc4s3)cc(F)c2n1 (mixture of isomers) [Compound 156],< 100
15,"Cc1cn2cc(NC(=O)c3cc4ccc(N5CC6CCCN6CC5C)nc4s3)ccc2n1 (centres unmarked) [Compound 45, 6-(3-methylhexahydropyrrolo[1,2-a]pyrazin-2(1H)-yl)-N-(2-methylimidazo[1,2-a]pyridin-6-yl)thieno[2,3-b]pyridine-2-carboxamide]",100 to 1000
16,"CN[C@H]1CCN(c2ccc3nc(C(=O)Nc4cc(F)c5nc(C)cn5c4)sc3n2)C1 [Compound 107, (S)-N-(8-fluoro-2-methylimidazo[1,2-a]pyridin-6-yl)-5-(3-(methylamino)pyrrolidin-1-yl)thiazolo[5,4-b]pyridine-2-carboxamide]",< 100
17,"Cc1cn2cc(NC(=O)c3cc4ccc(N5CCNCC5)nc4s3)cc(F)c2n1 [Compound 75, N-(8-fluoro-2-methylimidazo[1,2-a]pyridin-6-yl)-6-(piperazin-1-yl)thieno[2,3-b]pyridine-2-carboxamide]",< 100
18,"Cc1cn2cc(NC(=O)c3cc4ccc(OC5CCNC(C)(C)C5)nc4s3)cc(F)c2n1 (racemic) [Compound 158, 6-((2,2-dimethylpiperidin-4-yl)oxy)-N-(8-fluoro-2-methylimidazo[1,2-a]pyridin-6-yl)thieno[2,3-b]pyridine-2-carboxamide]",< 100

row,Compound,IC50 [nM]
1,"COc1cc2nn(C)cc2cc1NC(=O)c1nc2ccc(N3CC[C@@H](N4CCC4)C3)nc2s1 [Compound 120, (R)-5-(3-(azetidin-1-yl)pyrrolidin-1-yl)-N-(6-methoxy-2-methyl-2H-indazol-5-yl)thiazolo[5,4-b]pyridine-2-carboxamide]",100 to 1000
2,"COc1nc(NC(=O)c2cc3nc(C4CCN(C)CC4)ccc3o2)cn2cc(C)nc12 [Compound 262, N-(8-methoxy-2-methylimidazo[1,2-a]pyrazin-6-yl)-5-(1-methylpiperidin-4-yl)furo[3,2-b]pyridine-2-carboxamide]",100 to 1000
3,"COc1nc(NC(=O)c2cc3ccc(N4CCC(N(C)C)C4)nc3s2)cn2cc(C)nc12 (single isomer, unassigned) [Compound 198]",< 100
4,"Cc1cn2cc(NC(=O)c3nc4ccc(NC5CC(C)(C)NC(C)(C)C5)nc4s3)cc(F)c2n1 [Compound 103, N-(8-fluoro-2-methylimidazo[1,2-a]pyridin-6-yl)-5-((2,2,6,6-tetramethylpiperidin-4-yl)amino)thiazolo[5,4-b]pyridine-2-carboxamide]",< 100
5,"Cc1cn2cc(NC(=O)c3cc4ccc(N5CCN(C)CC5)nc4s3)cc(F)c2n1 [Compound 77, N-(8-fluoro-2-methylimidazo[1,2-a]pyridin-6-yl)-6-(4-methylpiperazin-1-yl)thieno[2,3-b]pyridine-2-carboxamide]",< 100
6,"COc1cc2nn(C)cc2cc1NC(=O)c1nc2ccc(C3CCN(C)CC3)nc2s1 [Compound 135, N-(6-methoxy-2-methyl-2H-indazol-5-yl)-5-(1-methylpiperidin-4-yl)thiazolo[5,4-b]pyridine-2-carboxamide]",100 to 1000
7,"Cc1cn2cc(NC(=O)c3cc4ccc(N5CCC56CCNC6)nc4s3)cc(F)c2n1 (centres unmarked) [Compound 209, N-(8-fluoro-2-methylimidazo[1,2-a]pyridin-6-yl)-6-(1,6-diazaspiro[3.4]octan-1-yl)thieno[2,3-b]pyridine-2-carboxamide]",< 100
8,"COc1cc2nn(C)cc2cc1NC(=O)c1cc2ccc(N3CC[C@]4(CCCN4C)C3)nc2s1 (single isomer, unassigned) [Compound 222]",< 100
9,"Cc1cn2cc(NC(=O)c3cc4ccc(C5CNC(C)C5)nc4s3)cc(F)c2n1 (centres unmarked) [Compound 179, N-(8-fluoro-2-methylimidazo[1,2-a]pyridin-6-yl)-6-(5-methylpyrrolidin-3-yl)thieno[2,3-b]pyridine-2-carboxamide]",< 100
10,"Cc1cn2cc(NC(=O)c3cc4ccc(N5CCC(N6CC(C)(C)C6)C5)nc4s3)ccc2n1 (centres unmarked) [Compound 35, 6-(3-(3,3-dimethylazetidin-1-yl)pyrrolidin-1-yl)-N-(2-methylimidazo[1,2-a]pyridin-6-yl)thieno[2,3-b]pyridine-2-carboxamide]",100 to 1000
11,"COc1cn2nc(C)cc2cc1NC(=O)c1cc2ccc(N3CCC4(CCCN4C)C3)nc2s1 (single isomer, unassigned) [Compound 225]",< 100
12,"COc1c(NC(=O)c2nc3ccc(N4CCC5(CCCN5C)C4)nc3s2)cc2cn(C)nc2c1F (single isomer, unassigned) [Compound 124]",< 100
13,"Cc1cn2cc(NC(=O)c3nc4ccc(N5C[C@@H]6CCN[C@@H]6C5)nc4s3)cc(F)c2n1 [Compound 105, N-(8-fluoro-2-methylimidazo[1,2-a]pyridin-6-yl)-5-((3aS,6aS)-hexahydropyrrolo[3,4-b]pyrrol-5(1H)-yl)thiazolo[5,4-b]pyridine-2-carboxamide]",< 100
14,"COc1cc2nn(C)cc2cc1NC(=O)c1nc2ccc(N3CCC4(CCCN4C)C3)nc2s1 (centres unmarked) [Compound 87, N-(6-methoxy-2-methyl-2H-indazol-5-yl)-5-(1-methyl-1,7-diazaspiro[4.4]nonan-7-yl)thiazolo[5,4-b]pyridine-2-carboxamide]",< 100
15,"Cc1cn2cc(NC(=O)c3cc4ccc(N5CC[C@@H](N(C)C)C5)nc4s3)cc(F)c2n1 [Compound 10, 6-[(3R)-3-(dimethylamino)pyrrolidin-1-yl]-N-(8-fluoro-2-methyl-imidazo[1,2-a]pyridin-6-yl)thieno[2,3-b]pyridine-2-carboxamide]",< 100
16,"Cc1cn2cc(NC(=O)c3cc4ccc(N5CC[C@@H](N(C)C)C5)nc4s3)nc(C(F)F)c2n1 [Compound 250, (R)-N-(8-(difluoromethyl)-2-methylimidazo[1,2-a]pyrazin-6-yl)-6-(3-(dimethylamino)pyrrolidin-1-yl)thieno[2,3-b]pyridine-2-carboxamide]",< 100
17,"COc1cc(NC(=O)c2nc3ccc(N4CC5(CCN(C)C5)C4)nc3s2)cn2cc(C)nc12 [Compound 267, N-(8-methoxy-2-methylimidazo[1,2-a]pyridin-6-yl)-5-(6-methyl-2,6-diazaspiro[3.4]octan-2-yl)thiazolo[5,4-b]pyridine-2-carboxamide]",< 100
